In the supplement of paper PMC10307832:

How the values were obtained:
Test in all cases: relative viability (nuclei count vs DMSO), 5 days (fraction); higher = more cells survive
XMD8-85 + Trametinib = compound: CN1CCN(CC1)C2=CC(=C(C=C2)NC3=NC=C4C(=N3)N(C5=CC=CC=C5C(=O)N4C)C)OC [XMD8-85] + CC(=O)Nc1cccc(-n2c(=O)n(C3CC3)c(=O)c3c(Nc4ccc(I)cc4F)n(C)c(=O)c(C)c32)c1 [Trametinib] (partner 0.02 µM)
Procedure, shortened: (§1)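 The day after seeding in 1536-well plates, lung cancer cell lines were treated by pin tool with a single drug, or with a fixed anchor-drug dose together with five library-drug doses (not always all listed) in √10 steps. After 5 days, a combined fix-and-stain solution (final 0.05% Triton X-100, 1% formaldehyde, 1 ug/ml Hoechst) was added. Nuclei counted on 4× images gave relative viability as treated counts over vehicle counts, reported as the median of duplicate plates.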

XMD8-85 + Palbociclib = compound: CN1CCN(CC1)C2=CC(=C(C=C2)NC3=NC=C4C(=N3)N(C5=CC=CC=C5C(=O)N4C)C)OC [XMD8-85] + CC(=O)c1c(C)c2cnc(Nc3ccc(N4CCNCC4)cn3)nc2n(C2CCCC2)c1=O [Palbociclib] (partner 0.5 µM)
Procedure, shortened: as §1

XMD8-85 + Navitoclax = compound: CN1CCN(CC1)C2=CC(=C(C=C2)NC3=NC=C4C(=N3)N(C5=CC=CC=C5C(=O)N4C)C)OC [XMD8-85] + CC1(C)CCC(c2ccc(Cl)cc2)=C(CN2CCN(c3ccc(C(=O)NS(=O)(=O)c4ccc(N[C@H](CCN5CCOCC5)CSc5ccccc5)c(S(=O)(=O)C(F)(F)F)c4)cc3)CC2)C1 [Navitoclax] (partner 0.5 µM)
Procedure, shortened: as §1

XMD8-85 + Linsitinib = compound: CN1CCN(CC1)C2=CC(=C(C=C2)NC3=NC=C4C(=N3)N(C5=CC=CC=C5C(=O)N4C)C)OC [XMD8-85] + C[C@]1(O)C[C@@H](c2nc(-c3ccc4ccc(-c5ccccc5)nc4c3)c3c(N)nccn32)C1 [Linsitinib] (partner 1 µM)
Procedure, shortened: as §1

Cell Line	relative viability (XMD8-85 + Trametinib; first compound 0.08 µM)	relative viability (XMD8-85 + Trametinib; first compound 0.253 µM)	relative viability (XMD8-85 + Trametinib; first compound 0.8 µM)	relative viability (XMD8-85 + Trametinib; first compound 2.53 µM)	relative viability (XMD8-85 + Trametinib; first compound 8 µM)	relative viability (XMD8-85 + Palbociclib; first compound 0.08 µM)	relative viability (XMD8-85 + Palbociclib; first compound 0.253 µM)	relative viability (XMD8-85 + Palbociclib; first compound 0.8 µM)	relative viability (XMD8-85 + Palbociclib; first compound 2.53 µM)	relative viability (XMD8-85 + Palbociclib; first compound 8 µM)	relative viability (XMD8-85 + Navitoclax; first compound 0.08 µM)	relative viability (XMD8-85 + Navitoclax; first compound 0.253 µM)	relative viability (XMD8-85 + Navitoclax; first compound 0.8 µM)	relative viability (XMD8-85 + Navitoclax; first compound 2.53 µM)	relative viability (XMD8-85 + Navitoclax; first compound 8 µM)	relative viability (XMD8-85 + Linsitinib; first compound 0.08 µM)	relative viability (XMD8-85 + Linsitinib; first compound 0.253 µM)	relative viability (XMD8-85 + Linsitinib; first compound 0.8 µM)	relative viability (XMD8-85 + Linsitinib; first compound 2.53 µM)	relative viability (XMD8-85 + Linsitinib; first compound 8 µM)
NCI-H1755	0.801	0.857	0.745	0.876	0.758	0.47	0.445	0.432	0.449	0.393	1.03	1.04	0.953	0.984	0.838	1.06	1.01	1	1.09	0.907
NCI-H2405	0.572	0.597	0.637	0.647	0.628	0.527		0.543	0.528	0.509	0.877	1.09	1.08	0.662	0.427		0.912	0.951	0.735	0.739
SK-LU-1	0.425	0.469	0.53	0.508	0.367	0.358	0.364	0.392	0.356	0.385	0.839	0.795	1.1	0.888	0.293	0.947	1.11	1.12	1.07	0.91
PC-14	0.733	0.703	0.756	0.6	0.306	0.552	0.44	0.596	0.404	0.167	1.01	1.02	1.03	0.959	0.628	1.06	0.849	0.914	0.843	0.86
NCI-H2009	0.26	0.237	0.261	0.253	0.18	0.198	0.208	0.184	0.163	0.154	1.13	1.12	1.19	1.08	0.717	1.17	1.12	1.21	1.23	0.636
HARA	0.9	0.78	0.578	0.21	0.33	0.278	0.287	0.279	0.247	0.195	1.17	1.15	1.13	1	0.443	1.06	0.933	0.945	0.668	0.243
UMC-11	0.723	0.738	0.696	0.683	0.403	0.359	0.336	0.347	0.308	0.318	0.356	0.312	0.322	0.301	0.234	1.01	0.922	1.15	0.848	0.512
NCI-H460	0.176	0.122	0.2	0.133	0.055	0.129	0.221	0.139	0.223	0.0809	1.07	1.21	1.14	1.22	0.415	0.594	0.904	0.868	0.821	0.262
NCI-H322M	0.534	0.5	0.44	0.418	0.455	0.466	0.447	0.457	0.444	0.431	1.21	1.1	1.34	1.2	1.05	0.853	0.986	0.864	0.825	0.933
NCI-H1734	0.654	0.712	0.704	0.604	0.519	0.315	0.329		0.384	0.281	0.806	0.888	0.78	0.952	0.504	1.01	0.766	0.863	0.816	0.607
HCC-15	0.396	0.315	0.408	0.408	0.287	0.728	0.705	0.751	0.708	0.619	0.731	0.642	0.698	0.655	0.499	0.867	0.849	0.843	0.866	0.661
NCI-H1651	0.842	0.886	0.739	0.76	0.716	0.517	0.534	0.475	0.468	0.405	1.09	1	1.13	0.976	0.849	0.957	0.909	0.945	1.08	0.659
LOU-NH91	0.792	0.807	0.755	0.785	0.621	0.536	0.496	0.503	0.534	0.514	0.69	0.764	0.639	0.7	0.546	0.946	0.979	0.909	0.914	0.751
NCI-H3122	0.251	0.223	0.271	0.303	0.283	0.188	0.192	0.218	0.186	0.215	1.08	1.01	1.09	1.06	1.1	1.03	0.95	1.03	1.06	1.09
NCI-H1395	0.832	1.08	0.995	1.04	0.829	0.503	0.61	0.621	0.54	0.495	1.09	1.18	1.3	1.03	1.02	0.792	1.09	1.35	1.01	1.08
HCC-44	1.11	1.12	1.12	1.04	1.01	0.993	1.06	1.08	0.993	0.946	1.03	1.03	1.05	0.796	0.434	0.714	0.749	0.642	0.499	0.346

Cell Line	relative viability (XMD8-85 + Trametinib; first compound 0.08 µM)	relative viability (XMD8-85 + Trametinib; first compound 0.253 µM)	relative viability (XMD8-85 + Trametinib; first compound 0.8 µM)	relative viability (XMD8-85 + Trametinib; first compound 2.53 µM)	relative viability (XMD8-85 + Trametinib; first compound 8 µM)	relative viability (XMD8-85 + Palbociclib; first compound 0.08 µM)	relative viability (XMD8-85 + Palbociclib; first compound 0.253 µM)	relative viability (XMD8-85 + Palbociclib; first compound 0.8 µM)	relative viability (XMD8-85 + Palbociclib; first compound 2.53 µM)	relative viability (XMD8-85 + Palbociclib; first compound 8 µM)	relative viability (XMD8-85 + Navitoclax; first compound 0.08 µM)	relative viability (XMD8-85 + Navitoclax; first compound 0.253 µM)	relative viability (XMD8-85 + Navitoclax; first compound 0.8 µM)	relative viability (XMD8-85 + Navitoclax; first compound 2.53 µM)	relative viability (XMD8-85 + Navitoclax; first compound 8 µM)	relative viability (XMD8-85 + Linsitinib; first compound 0.08 µM)	relative viability (XMD8-85 + Linsitinib; first compound 0.253 µM)	relative viability (XMD8-85 + Linsitinib; first compound 0.8 µM)	relative viability (XMD8-85 + Linsitinib; first compound 2.53 µM)	relative viability (XMD8-85 + Linsitinib; first compound 8 µM)
EPLC-272H	0.276	0.271	0.272	0.313	0.251	0.284	0.317	0.312	0.306	0.303		1.3	1.08	1.05	0.679		1.24	1.02	1.2	0.912
PC-3 [JPC-3]	0.672	0.83	0.75	0.717	0.599	0.489	0.539	0.551	0.583	0.564	0.796	0.785	0.861	0.966	0.769	0.958	0.994	1.02	1.09	
SW 1573	0.542	0.522	0.594	0.427	0.262		0.387	0.431	0.365	0.192	1.13	1.02	0.896	0.801	0.545	0.873	0.802		0.698	0.655
NCI-H520		0.728	0.689	0.604	0.496	0.181	0.211	0.199	0.221	0.196	1.2	1.19	1.05	1.06	0.829	0.86	0.914	1.16	0.849	0.67
NCI-H1944	0.388	0.453	0.462	0.462	0.369	0.319	0.319	0.362	0.33	0.313	1.13	1.1	1.18	1.16	1.12	1.1	1.26	1.25	1.44	1.04
RERF-LC-KJ	0.887	0.853	0.873	0.904	0.727	1.09	1.13	1.18	1.23	0.768	0.712	0.96	0.982	1.03	0.565	0.826	0.903	0.881	0.804	0.883
NCI-H2085	0.651	0.469	0.427	0.514	0.355	0.446	0.452	0.419	0.475	0.397	1.16	1.11	1.12	1.04	0.789	0.585	0.943	0.935	0.885	0.674
NCI-H2228	0.354	0.57	0.379	0.387	0.181	0.651	0.572	0.828	0.844	0.35	0.893	0.929	0.619	0.81	0.353	0.587	0.944	0.609	0.858	0.444
CAL-12T	0.32	0.404		0.302	0.379	0.308	0.499		0.474	0.196	1.18	1.11	1.1	1.06	0.759	0.677	0.656	0.802	0.808	0.595
NCI-H441	0.4	0.427	0.463	0.494	0.234	0.206	0.209	0.197	0.195	0.2	0.664	0.565	1.01	1.11	0.278	0.473	0.683	0.647	0.5	0.388
NCI-H1437	0.547	0.487	0.491	0.594	0.308	0.295	0.311	0.289	0.309	0.203	1.16	1.16	1.13	0.979	0.591	0.902	0.944	1.09	0.92	0.413
LU99A	0.51	0.538	0.55	0.53	0.433	0.367	0.36	0.458	0.46	0.368	0.857	0.689	0.888	0.892	0.44	0.451	0.566	0.545	0.531	0.459
NCI-H2347	0.275	0.312	0.283	0.298	0.286	0.523	0.457	0.395	0.456	0.352	0.757	0.852		0.809	0.63	0.91	0.923	0.808	1.04	0.796
EKVX	0.56	0.327	0.437	0.47	0.374	0.285	0.369	0.446	0.487	0.372	0.931	0.999	0.89	1.03	0.892	0.808	1.06	1.03	1.18	0.851
H3255	0.576	0.593	0.465	0.554	0.373	0.33	0.323	0.285	0.273	0.26	0.519	0.581	0.45	0.484	0.284	0.994	0.872	0.955	0.946	0.629
NCI-H1793		0.483	0.37	0.481	0.442		0.251	0.319	0.38	0.208	0.334	0.348	0.962	1.27	0.351	0.78	0.703	1.04	0.976	0.907
